{
  "source": "patent US20070037783A1",
  "about": "“Migrastatin analogs and uses thereof” (priority 2003, published 2007)",
  "key": {"[1]": {"system": "HUVECs (human umbilical vein endothelial cells)", "experiment": "Boyden chamber cell migration assay with HUVECs", "format": "cell-based", "settings": "Homo sapiens, HUVEC, read-out: IC50 (HUVEC)", "protocol": "(§1) Chamber Cell Migration Assay (Tables 4 and 6): Cell migrations were assayed with Boyden chambers [8.0 μm pore size, polyethylene terephthalate membrane, FALCON cell culture insert (Becton-Dickinson)]. 4T1 mouse breast tumor cells or HUVECs were trypsinized and counted. 300 μl of 5-10×10^4 cells in serum-free medium was added to the upper chamber and 500 μl of medium with 10% fetal bovine serum (FBS) was added to the lower chamber. The transwells were incubated for 6-8 h at 37° C. with different concentrations of chemical compound in both upper and lower chamber. Cells on the inside of the transwell inserts were removed with a cotton swab, and cells on the underside of the insert were fixed and stained. Photographs of three random regions were taken and the number of cells was counted to calculate the average number of cells that have transmigrated."}, "[2]": {"system": "HUVEC", "experiment": "Tube formation assay (preliminary, Table 1)", "format": "cell-based, human", "settings": "minimal concentration causing definite disturbance of tube network, 16-18 h, tested 200, 100, 50, 25, 10 μM", "protocol": "1. Tube Formation Assay (Table 1):\nA protocol was designed based on the instructions from the provider (BD Bioscience, San Jose, Calif.). Briefly, wells of a 48 well culture dish were covert with 150 μL matrigel and the matrigel was gelatinized for 30 min at 37° C. A 80-90% confluent HUVEC (BD Bioscience, San Jose, Calif.) culture was trypsin treated, the detached cells were collected by centrifugation and resuspended in EGM-2 media (BD Bioscience, San Jose, Calif.). Cell concentration was adjusted to 100.000 cells/mL. 400 μL of the cell suspension were filled in the matrigel coated wells, and a solution of the inhibitor was added to the intended final concentration. The plates were incubated at 37° C. with 5% CO2 for 16-18 h. Media was removed, and the matrigel surface was washed twice with 500 μL PBS before cells were labeled with 250 μL 8 μM Calcein AM (Pierce, Rockford, Ill.) in PBS for 30 min at 37° C. After two additional washing steps (500 μL PBS) cells were visualized under an inverted microscope. Fluorescence was excited at 488 nm and recorded at 538 nm. The minimum effect concentration was defined as the minimal inhibitor concentration that caused a definite disturbance of the complexity of the formed tube network."}, "[3]": {"system": "adherent cells (e.g. KYSE-520 cells)", "experiment": "Wound healing (scratch) assay (preliminary, Table 2)", "format": "cell-based", "settings": "28 to 30 h, compared to 100 μM Migrastatin, tested 200, 100, 50, 25, 10 μM", "protocol": "2. Wound Healing Assay (Table 2)\nThe wound healing assay was performed based on the method described by Nakae et al. (Nakae et al., J. Antibiotics (2000), 53, 1130-1136). Briefly, adherent cells were grown in a suitable media to confluence (e.g. KYSE-520 cells in RPMI-1640 with 10% FBS). Cells were starved for 24 h in serum free media. A scratch (ca. 0.5 mm) was applied and the cell layer was washed twice with PBS after removal of the media. Fresh, serum free media with the test compound at the desired concentration was added and the cells were incubated for 28 to 30 h at 37° C., 5% CO2. The scratch size was compared to that observed for cells exposed to 100 μM Migrastatin. Test compounds associated with a scratch size equal to or larger than that observed for cells exposed to 100 μM Migrastatin were deemed to have cell migration inhibitory activity at least equal to Migrastatin."}, "[4]": {"system": "cells", "experiment": "Chamber cell migration assay, CyQuant readout (preliminary, Table 3)", "format": "cell-based", "settings": "36 h, tested 200, 100, 50, 25, 10 μM", "protocol": "3. Chamber Cell Migration Assay (Table 3)\nCells were grown in an appropriate media to 70 to 80% confluence and incubated in serum and growth factor free media for 24 h. Cells were detached by typsin treatment, collected by centrifugation and resuspended in serum free media to a final concentration of 150,000 cells/mL. 400 μL of the cell suspension were loaded into a fibronectin coated insert for 24 well multidishes. 750 μL fully supplemented media were applied to the compartment under the insert. To both chambers the inhibitor was added at the intended concentration and the plates were incubated for 36 h at 37° C., 5% CO2. […] The resulting CyQuant assay solution was transferred to the cavities of a 96 well microtiter plate and the fluorescence signal was recorded in an appropriate reader. The CyQuant dye forms a highly fluorescent complex with DNA, thus the fluorescence signal is proportional to the number of cells that migrated throught he membrane in the presence of the test compound (N^inh). […] The positive control fluorescent reading correlates with the number of cells that migrate through the membrane in the absence of inhibitor (N^+). […] The negative control fluorescent reading correlates with the number of cells that migrate through the membrane through non-directed processes (N^−). The anti-migratory effect of a test compound is determined by the ratio (N^inh−N^−)/(N^+−N^−)."}, "[5]": {"system": "4T1 mouse breast tumor cells", "experiment": "Boyden chamber cell migration assay with 4T1 tumor cells", "format": "cell-based", "settings": "Mus musculus, read-out: IC50 (4T1 tumor cells)", "protocol": "The biological evaluation of the compounds (in terms of their ability to inhibit cell migration) was accomplished in a Boyden chamber cell migration assay. In this assay, mouse breast tumor cells (4T1 cells) or endothelial cells (HUVECs) are seeded on the upper chamber of a transwell insert. Growth factor-containing serum is added to the lower chamber.\nas §1, with “The transwells were incubated for 6-8 h at 37° C. with different concentrations of chemical compound in both upper and lower chamber.” left out"}, "[6]": {"experiment": "Mouse plasma stability study (HPLC)", "format": "in vitro ADME", "settings": "stable = intensity of HPLC signal unchanged over 60 min of incubation", "protocol": "Mouse Plasma Stability Studies (Table 5): HPLC conditions: The sample is injected and separated using an Inertsil ODS3 6u 3×150 mm column with a mobile phase of MeCN and water (50% for migrastatin) at a flow of 0.4 mL/min, monitored at 220 nm at 0.02 AUFS (the retention time for migrastatin is ca. 4 min, the identity of this peak was confirmed by mass spectral analysis). Incubation and sample preparation conditions: A solution (ca. 30 mM) of chemical compound (Table 5) in DMSO is prepared. 2 μL of the solution is added to a mixture containing 200 μL of mouse plasma and 800 μL of PBS. The resulting solution is put into a water bath at 37° C., and 100 μL of sample is withdrawn at 10, 20, 30, 45, and 60 min. The precipitate is removed by centrifugation and 20 μL of the supernatant is injected onto the HPLC."}, "[7]": {"system": "4T1 tumor cells", "experiment": "Cell proliferation assay (MTT)", "settings": "Mus musculus, 4T1, 48 h, read-out: IC50, 4T1 cell proliferation", "quoted_text": "Cell Proliferation Assay: 4×10^4 of 4T1 tumor cells in RPMI-1640 medium containing 10% FBS were seeded into wells of 96-multiwell plates (Becton-Dickinson) in the presence or absence of chemical compounds and then incubated at 37° C. for 48 h. An MTT kit (Cell Proliferation Kit I, Roche) (a colorimetric assay) was used to quantify cell proliferation and viability. The number of living cells, thus the total metabolic activity, directly correlates to the amount of purple formazan crystals formed (monitored by the absorbance)."}, "[8]": {"system": "tumor cell migration", "settings": "literature value for natural migrastatin; read-out: IC50, wound healing assay (reported activity); cited from earlier work"}, "[9]": {"system": "4T1 mouse breast tumor cells", "experiment": "Wound-healing assay with 4T1 cells (FIG. 6)", "format": "cell-based", "settings": "with serum; 200 μM; overnight", "description": "In the wound healing assay, standard scratches (i.e., wounds) were made through a confluent 4T1 cell layer. In the absence of serum, cells would not migrate across the empty space created by application of the scratch. Upon addition of serum containing migration-enabling factors, migration of 4T1 cells across the scratch was induced. Exposure to these cells to inventive compounds allowed the evaluation of the cell migration inhibitory activity of these compounds.\nWound-Healing Assay (See FIG. 6). 4T1 mouse breast tumor cells in RPMI-1640 medium containing 10% fetal bovine serum (FBS) were seeded into wells of 24-multiwell plates (Becton-Dickinson). After cells grew to confluence, wounds were made with sterile pipette tips. Cells were washed with Phosphate Buffered Saline (PBS) and refreshed with growth medium containing different concentrations of chemical compounds. After overnight incubation at 37° C., cells were fixed and photographed."}},
  "data": [
    {"smiles": "CO[C@H]1/C=C/CC/C=C/C(=O)O[C@H]([C@H](C)C(=O)CCCC2CC(=O)NC(=O)C2)/C(C)=C\\[C@@H](C)[C@@H]1O", "note": "[migrastatin (1), Migrastatin]", "values": [
      {"measurement": "IC50", "setting": "[1]", "result": 65, "unit": "µM"},
      {"measurement": "Minimum effect concentration", "setting": "[2]", "result": 100, "unit": "µM"},
      {"measurement": "Minimum effect concentration", "setting": "[3]", "result": 100, "unit": "µM"},
      {"measurement": "IC50", "setting": "[4]", "result": 200, "unit": "µM"},
      {"measurement": "IC50", "setting": "[5]", "result": 29, "unit": "µM"},
      {"measurement": "stability (mouse plasma), in words", "setting": "[6]", "result": "stable^1"},
      {"measurement": "stability (mouse plasma), in words", "setting": "[6]; listed as migrastatin", "result": "completely inert toward lactone opening"},
      {"measurement": "IC50", "setting": "[7]", "result": 42, "unit": "µM"},
      {"measurement": "IC50", "setting": "[8]", "result": 29, "unit": "µM"},
      {"measurement": "inhibition of 4T1 cell migration across the scratch, in words", "setting": "[9]", "result": "not as great"}
    ]}
  ]
}
